In one assay the test system is SKOV3. Briefly: CCK-8 cell growth inhibition, SKOV3. The assay is classed as cell-based, human. As to conditions: CCK-8 assay, 72-h incubation; read-out: Cell Lines IC50 SKOV3. The protocol:
(§1) In vitro anticancer screening of all newly synthesized compounds towards human solid tumor cells, cervical (SiHa) and ovarian (SKOV3) cancer cell lines, was carried out by standard CCK-8 assay with cisplatin as the positive control, as cisplatin is one of the most used chemotherapy drugs. […] The compound was further evaluated in a dose response study against a panel of solid tumor cells, including cervical cancer cell lines (SiHa and HeLa), ovarian cancer cell lines (SKOV3 and OVCAR-5), breast cancer cell lines (4T1 and MCF-7), lung cancer cell lines (A549 and H460) to test cytotoxic activity. The IC50 values were summarized in Table 2, including the cytotoxic activity of the cisplatin used as reference compound.
(§2) The viability of cells as determined using the CCK8 assay method. Cells were seeded (2000–3000 cells per well) in 96-well plates. After incubation for 24 h in serum-containing media, the cells were treated with drugs at different concentrations diluted with culture medium for 72 h at 37 °C with a 5% CO2 atmosphere. Then, 10 μL CCK8 regent (Promega, WI) was added to each well, and the plates were incubated for 1–4 h at 37 °C. Finally, absorbance values of test wells (AS), control wells (AC) and blank wells (Ab) at 450 nm were read using the Microplate Reader (Promega, WI). Inhibition ratios were calculated as follows: [(AC − AS)/ (AC−Ab)] × 100%. IC50 values were calculated using GraphPad software.
(In general: Tetrazolium assays rely on reduction of a dye to a coloured formazan, in cell work by metabolically active cells.)

Another assay deals with SiHa. The assay can be described thus: CCK-8 cell growth inhibition, SiHa. The class given is cell-based, human. To be noted: CCK-8 assay, 72-h incubation; read-out: Cell Lines IC50 SiHa. The method, then: as §1, §2
In the next assay the test system is HeLa. Briefly: CCK-8 cell growth inhibition, HeLa. The class given is cell-based, human. As to conditions: cervical cancer; CCK-8 assay, 72-h incubation. The method, then: as §1
(§3) The viability of cells as determined using the CCK8 assay method. Cells were seeded (2000–3000 cells per well) in 96-well plates. After incubation for 24 h in serum-containing media, the cells were treated with drugs at different concentrations diluted with culture medium for 72 h at 37 °C with a 5% CO2 atmosphere. […] Finally, absorbance values of test wells (AS), control wells (AC) and blank wells (Ab) at 450 nm were read using the Microplate Reader (Promega, WI). Inhibition ratios were calculated as follows: [(AC − AS)/ (AC−Ab)] × 100%. IC50 values were calculated using GraphPad software.

The next assay has as its system MCF-7. The assay can be described thus: CCK-8 cell growth inhibition, MCF-7. The class given is cell-based, human. To be noted: breast cancer; CCK-8 assay, 72-h incubation. The protocol: as §1, §3
The test system of a further assay is 4T1. Briefly: CCK-8 cell growth inhibition, 4T1. The class given is cell-based. As to conditions: breast cancer; CCK-8 assay, 72-h incubation. The protocol: as §1, §3
For a further assay, the system named is OVCAR-5. Briefly: CCK-8 cell growth inhibition, OVCAR-5. To be noted: ovarian cancer; CCK-8 assay, 72-h incubation. The assay is classed as cell-based, human. The protocol:
as §1, §3

The next assay relates to A549. The assay can be described thus: CCK-8 cell growth inhibition, A549. As to conditions: lung cancer; CCK-8 assay, 72-h incubation. The class given is cell-based, human. The method, then: as §1, §3
The subject of the next assay is H460. The assay can be described thus: CCK-8 cell growth inhibition, H460. As to conditions: lung cancer; CCK-8 assay, 72-h incubation. The class given is cell-based, human. The protocol:
as §1, §3

In another assay the test system is SiHa xenograft. The assay can be described thus: SiHa xenograft mouse model, oral dosing. The class given is in vivo. To be noted: SiHa xenograft mice, 20 mg/kg oral, every day. The protocol: Based on a desirable set of in vitro properties, 12O was finally selected for further in vivo evaluation. We proceeded to test the antitumor efficacy of 12O in SiHa xenograft mice. Animals were orally given three doses (5, 10, and 20 mg Kg^−1) of 12O, one dose (20 mg Kg^−1) of cisplatin (positive control), or vehicle (control) every day. […] Of note, In Figure 5c, an obvious decrease in tumor size was also observed at the end of observation. The average tumor weight (Figure 5d) of the 12O-treated group was less than that of cisplatin. HE staining was further performed to identify the efficacy of 12O (Figure 5e). […] Additional kinase activities of 12O intimately associated with the growth, survival, and metastasis in tumor cells, may contribute to the antitumor activity, but may also cause side effects. Multi-target kinase inhibitor extensively used in clinic cancer therapy, while hampered by associated adverse reactions and side-effect. Thus, further evidence is needed. An in-depth study of compound 12O is ongoing in our laboratory and will be reported in due course.
All animal studies were conducted under the approval of the Experimental Animal Management Committee of Nankai University (No. NKUEC20190228). Six- to eight-week-old female BALB/c nude mice were purchased from Beijing HFK Bioscience Company. Mice were fed in an SPF-level laboratory animal room. The mice were kept in independent ventilation cages with autoclaved corncobs at the bottom of the cage as bedding. The dimensions of the cages were 390 × 180 × 180 mm. Environmental factors: Average air temperature ranged from 20 to 26 °C with average relative air humidity ranging from 40 to 70%. Noise was below 60 decibels. Ventilation times were more than 15 times/hour. Air velocity was 0.1~0.2m/s. The ammonia concentration was below 14/(mg/m³). Working illumination was 150~300LX and animal illumination was 15~20LX. The nutritional components of mouse food include: water content: ≤10%, crude protein: ≥18%, crude fat: ≥4%, crude fiber: ≥5%, minerals: ≥4%, calcium: 1.0–1.8%, Phosphorus: 0.6-1.2%. The water that mice drink is sterilized by the animal drinking system.
Cells SiHa were harvested during the exponential-growth phase, washed 3 times with serum-free medium, followed by resuspension at a concentration of 2 × 10^6 per mL. A total of 100 μL of cell suspension was injected into SCID mice subcutaneously. After the tumors had grown to 100−150 mm^3, all the mice were randomized into 5 groups (5 mice for each group, 25 mice total). The mice were treated daily via oral gavage administration with 12O (5, 10, or 20 mg kg^−1 d^−1), cisplatin (20 mg kg^−1 d^−1), or vehicle. […] Mice were monitored for side effects every day. Body weights and tumor sizes were determined every other day and volume was also observed. At the end-point of the study, all mice had survived. Mice were euthanized and the subcutaneous tumor tissues were stripped and collected. Tumor measurements were calculated using a digital vernier caliper, and the volumes were determined using the following calculation: (short^2) × long × 0.5. Inhibition rate of tumor growth was calculated using the following formula: 100 × {1 − [(tumor volume final-tumor volume initial) for 12O-treated group]/ [(tumor volume final-tumor volume initial) for the vehicle-treated group]} [23].

In general, IC50 refers to the concentration at which inhibition is half-maximal.

A value given as a limit tells only on which side of the number the result lay.

`N.N.[Cl][Pt][Cl]` [Cisplatin, cisplatin, reference compound]: the IC50 was determined as 5360 nM in the assay with SKOV3; 4910 nM in the assay on SiHa; 5.81 µM with HeLa; 7.16 µM with MCF-7; 4.26 µM in the assay on 4T1; 1240 nM with OVCAR-5. Further, the half-inhibitory concentration (IC50) in the assay on A549 was 8.28 µM; in the assay on H460 it was greater than 10 µM. Moreover, the “Tumor growth inhibition (TGI)” value in the assay with SiHa xenograft was determined as 31.14%.

For “N-(3-bromophenyl)-N-(4-((5-fluoro-4-(1-isopropyl-1H-benzo[d](1,2,3)triazol-6-yl)pyrimidin-2-yl)amino)benzyl)cyclopropane-1,1-dicarboxamide [12E]”, the figures for the IC50 in the assay with SKOV3 and in the assay on SiHa were 778 nM and 66 nM, respectively.

With “N-(3-chlorophenyl)-N-(4-((5-fluoro-4-(1-isopropyl-1H-benzo[d](1,2,3)triazol-6-yl)pyrimidin-2-yl)amino)benzyl)cyclopropane-1,1-dicarboxamide [12C]”, the half-maximal inhibitory concentration (IC50) turned out to be 459 nM in the assay with SKOV3 and 68 nM in the assay on SiHa.

“N-(3-cyanophenyl)-N-(4-((5-fluoro-4-(1-isopropyl-1H-benzo[d](1,2,3)triazol-6-yl)pyrimidin-2-yl)amino)benzyl)cyclopropane-1,1-dicarboxamide [12K]”: the IC50 in the assay with SKOV3 was 108 nM; in the assay with SiHa it was 83 nM.

In the case of “N-(4-((5-fluoro-4-(1-isopropyl-1H-benzo[d](1,2,3)triazol-6-yl)pyrimidin-2-yl)amino)benzyl)-N-(3-(trifluoromethyl)phenyl)cyclopropane-1,1-dicarboxamide [12M]”, the results for the half-maximal inhibitory concentration (IC50) in the assay with SKOV3 and in the assay with SiHa were 498 nM and 177 nM, respectively.

As for “N-(4-((5-fluoro-4-(1-isopropyl-1H-benzo[d](1,2,3)triazol-6-yl)pyrimidin-2-yl)amino)benzyl)-N-(3-fluorophenyl)cyclopropane-1,1-dicarboxamide [12A]”, the values for the IC50 in the assay on SKOV3 and in the assay on SiHa were 531 nM and 35 nM, respectively.

Turning to “N-(4-((5-fluoro-4-(1-isopropyl-1H-benzo[d](1,2,3)triazol-6-yl)pyrimidin-2-yl)amino)benzyl)-N-(3-methoxyphenyl)cyclopropane-1,1-dicarboxamide [12G]”, the values for the IC50 in the assay on SKOV3 and with SiHa were 325 nM and 73 nM, respectively.

For “N-(4-((5-fluoro-4-(1-isopropyl-1H-benzo[d](1,2,3)triazol-6-yl)pyrimidin-2-yl)amino)benzyl)-N-(4-(trifluoromethyl)phenyl)cyclopropane-1,1-dicarboxamide [12N]”, the half-maximal inhibitory concentration (IC50) in the assay on SKOV3 was 427 nM; with SiHa, 160 nM.

For the molecule “N-(4-((5-fluoro-4-(1-isopropyl-1H-benzo[d](1,2,3)triazol-6-yl)pyrimidin-2-yl)amino)benzyl)-N-(4-fluorophenyl)cyclopropane-1,1-dicarboxamide [12B]”, the IC50 with SKOV3 was 199 nM; in the assay on SiHa, 28 nM.

On to “N-(4-((5-fluoro-4-(1-isopropyl-1H-benzo[d](1,2,3)triazol-6-yl)pyrimidin-2-yl)amino)benzyl)-N-(4-methoxyphenyl)cyclopropane-1,1-dicarboxamide [12H]”, for which the IC50 in the assay on SKOV3 was found to be 312 nM; in the assay on SiHa it was 80 nM.

Regarding “N-(4-((5-fluoro-4-(1-isopropyl-1H-benzo[d](1,2,3)triazol-6-yl)pyrimidin-2-yl)amino)benzyl)-N-(m-tolyl)cyclopropane-1,1-dicarboxamide [12I]”, the 50% inhibitory concentration (IC50) in the assay with SKOV3 worked out at 165 nM; in the assay on SiHa it was 42 nM.

As for “N-(4-((5-fluoro-4-(1-isopropyl-1H-benzo[d](1,2,3)triazol-6-yl)pyrimidin-2-yl)amino)benzyl)-N-(p-tolyl)cyclopropane-1,1-dicarboxamide [12J]”, the IC50 was determined as 137 nM in the assay on SKOV3 and 74 nM in the assay with SiHa.

“N-(4-bromophenyl)-N-(4-((5-fluoro-4-(1-isopropyl-1H-benzo[d](1,2,3)triazol-6-yl)pyrimidin-2-yl)amino)benzyl)cyclopropane-1,1-dicarboxamide [12F]”: the IC50 in the assay with SKOV3 stood at 706 nM; in the assay with SiHa, 128 nM.

For the molecule “N-(4-chloro-3-(trifluoromethyl)phenyl)-N-(4-((5-fluoro-4-(1-isopropyl-1H-benzo[d](1,2,3)triazol-6-yl)pyrimidin-2-yl)amino)benzyl)cyclopropane-1,1-dicarboxamide [12P]”, the IC50 stood at 915 nM in the assay with SKOV3 and 231 nM in the assay on SiHa.

With “N-(4-chlorophenyl)-N-(4-((5-fluoro-4-(1-isopropyl-1H-benzo[d](1,2,3)triazol-6-yl)pyrimidin-2-yl)amino)benzyl)cyclopropane-1,1-dicarboxamide [12D]”, the IC50 in the assay on SKOV3 is 793 nM; in the assay with SiHa, 63 nM.

Take “N-(4-cyanophenyl)-N-(4-((5-fluoro-4-(1-isopropyl-1H-benzo[d](1,2,3)triazol-6-yl)pyrimidin-2-yl)amino)benzyl)cyclopropane-1,1-dicarboxamide [12L]”: the results for the 50% inhibitory concentration (IC50) with SKOV3 and in the assay on SiHa were 101 nM and 63 nM, respectively.

The values above are taken from publication PMC7664879, “Discovery of 12O—A Novel Oral Multi-Kinase Inhibitor for the Treatment of Solid Tumor” (Molecules, 2020).
